The OligoGym collection
Several values for one entry are separate records, joined by “and”; a condition that tells them apart may be missing. Equal values may be shown once. After the bases stand the sugars from the 5' end (letter, count) and the backbone: PS all phosphorothioate, else s phosphorothioate and o phosphodiester by linkage. Methylation of C is not given here. e = 2'-O-(2-methoxyethyl) (MOE); k = constrained ethyl (cEt); d = 2'-deoxy (DNA); m = 2'-O-methyl

How the values were obtained:
IRF4 = conditions: ASO
HSD17B13 = conditions: ASO, HepaRG

Sequence | target mRNA inhibition (IRF4; SK-MEL-28, 4 µM) | target mRNA inhibition (HSD17B13; 1 µM) | other results
GGTGGCTCAGCAGCTT (sugars k3 d10 k3, PS) | 37% | – | –
GGCCTCCCGCTTGTGG (sugars k3 d10 k3, PS) | -18% | – | –
CATGTAAAGTCTGCTG (sugars k3 d10 k3, PS) | 58% | – | –
CAGAGACGCGGTGAGA (sugars k3 d10 k3, PS) | -61% | – | –
ATAACGAGGTGCCTTA (sugars k3 d10 k3, PS) | 13% | – | –
CAATTTACATCTTACT (sugars k3 d10 k3, PS) | 21% | – | –
CCCCGTATCCCCGTAT (sugars k3 d10 k3, PS) | 45% | – | –
AAATCTTCAACAGCAC (sugars k3 d10 k3, PS) | 45% | – | –
AGCAACTAGCAGGGCA (sugars k3 d10 k3, PS) | – | – | target mRNA inhibition (IRF4; MM.1R, 1 µM): -2%
TAATAATGCTTGCAAG (sugars k3 d10 k3, PS) | 12% | – | –
GACGAAAACAGCCGCC (sugars k3 d10 k3, PS) | 62% | – | –
TTGATGTGATAGCTGA (sugars k2 d9 e3 k2, PS) | – | – | target mRNA inhibition (IRF4; MM.1R, 1 µM): 17%
CCCAAGCCTTGAAGAG (sugars k4 d8 k4, PS) | 22% | – | –
TACCATATTGGAAACC (sugars k3 d10 k3, PS) | 48% | – | –
CTCTGACAAGAACTGC (sugars k3 d10 k3, PS) | 30% | – | –
AGTGGAGGTCTTTGGG (sugars k3 d10 k3, PS) | 55% | – | –
AAGTGTCTAAAGTCCC (sugars k2 d9 e3 k2, PS) | – | – | target mRNA inhibition (IRF4; MM.1R, 1 µM): 21% and 46%
GAATAGGAAGATATCA (sugars k3 d10 k3, PS) | 6% | – | –
CGCCCTGGACTCGGAG (sugars k3 d10 k3, PS) | 36% | – | –
GAAATGAACCCTAAGT (sugars k3 d10 k3, PS) | – | – | target mRNA inhibition (IRF4; MM.1R, 1 µM): -5%
AGTGATGTCAGGTTTT (sugars kkddddddddddkeke, PS) | – | – | target mRNA inhibition (IRF4; MM.1R, 1 µM): 32%
GGATAATATACCCCAA (sugars k3 d10 k3, PS) | 64% | – | –
TGGTAACTGTATGGAA (sugars k3 d10 k3, PS) | 48% | – | –
GCCAAGGATAACCTGA (sugars k3 d10 k3, PS) | 69% | – | target mRNA inhibition (IRF4; MM.1R, 0.0625 µM): 1%; target mRNA inhibition (IRF4; MM.1R, 0.074 µM): 0%; target mRNA inhibition (IRF4; MM.1R, 0.222 µM): 5%; target mRNA inhibition (IRF4; MM.1R, 0.25 µM): 10%; target mRNA inhibition (IRF4; MM.1R, 0.666 µM): 13%; target mRNA inhibition (IRF4; MM.1R, 1 µM): 27%; target mRNA inhibition (IRF4; MM.1R, 2 µM): 37%; target mRNA inhibition (IRF4; MM.1R, 4 µM): 59%

Sequence | target mRNA inhibition (IRF4; SK-MEL-28, 4 µM) | target mRNA inhibition (HSD17B13; 1 µM) | other results
CTTTACACAGTTCTAA (sugars k3 d10 k3, PS) | -13% | – | –
CACTTTAAAAGTTGAC (sugars k3 d10 k3, PS) | 28% | – | –
GAAGCATTTTATCATC (sugars kkdddddddddkdkdk, PS) | – | – | target mRNA inhibition (IRF4; MM.1R, 1 µM): 1%
CAATATGCTTCCAACC (sugars k3 d10 k3, PS) | -15% | – | –
GAGGACTTATTTGTGG (sugars k3 d10 k3, PS) | – | – | target mRNA inhibition (IRF4; MM.1R, 1 µM): 22%
TGGATCCTGAGAGTAA (sugars k3 d10 k3, PS) | – | – | target mRNA inhibition (IRF4; MM.1R, 1 µM): 0%
AGGCACATGAGAAATC (sugars k3 d10 k3, PS) | 23% | – | –
GTAAAGGTAAAGGCAC (sugars k3 d10 k3, PS) | 42% | – | –
TCATCCGAAAAGACTG (sugars k3 d10 k3, PS) | – | – | target mRNA inhibition (IRF4; MM.1R, 1 µM): 16%
ATTTACACCGTTGCTC (sugars k3 d10 k3, PS) | – | – | target mRNA inhibition (IRF4; MM.1R, 1 µM): 13%
TGCTTGAGGTTTTCCT (sugars kkddddddddddkeke, PS) | – | – | target mRNA inhibition (IRF4; MM.1R, 1 µM): 33%
AGCAAGTGTCTTCCAC (sugars k3 d10 k3, PS) | 75% and 72% | – | –
GGGAAAGAGCTTTGGT (sugars k3 d10 k3, PS) | 5% | – | –
GTCTTCCACAAGAACT (sugars k3 d10 k3, PS) | 47% | – | –
ACTTTTAGAGAGGAGA (sugars kkddddddddddkeke, PS) | – | – | target mRNA inhibition (IRF4; MM.1R, 1 µM): 23%
GTAACTGACACGCACA (sugars k3 d10 k3, PS) | 51% | – | –
TATAACTTCTCCTGTG (sugars k3 d10 k3, PS) | – | – | target mRNA inhibition (IRF4; MM.1R, 1 µM): 7%
TTTCACATGATAAGGC (sugars k3 d10 k3, PS) | 43% | – | –
ACAAGCATAAAAGGTT (sugars k3 d10 k3, PS) | 4% | – | –
AGCTTGATAAAGGCTG (sugars kkkdddddddddkeke, PS) | – | – | target mRNA inhibition (IRF4; MM.1R, 1 µM): -8%
AGCACCGTGTGGAAAG (sugars k3 d10 k3, PS) | 57% | – | –
GGCAAGCTGAATGCTC (sugars k3 d10 k3, PS) | 29% | – | –
GTTCTAGTCGCGCAAG (sugars k3 d10 k3, PS) | 27% | – | –
TGAAATGTCAAACCCT (sugars k3 d10 k3, PS) | 54% | – | –

Sequence | target mRNA inhibition (IRF4; SK-MEL-28, 4 µM) | target mRNA inhibition (HSD17B13; 1 µM) | other results
GGTCACAGGTAAGGGC (sugars k3 d10 k3, PS) | 25% | – | –
GTGATAGCTGAGCTGA (sugars kkdddddddddkekek, PS) | – | – | target mRNA inhibition (IRF4; MM.1R, 1 µM): 39%
ACGGAAGTTTACACTG (sugars kkdddddddddekeke, PS) | – | – | target mRNA inhibition (IRF4; MM.1R, 1 µM): 8%
GGTACGGGATTTCCGG (sugars k3 d10 k3, PS) | – | – | target mRNA inhibition (IRF4; MM.1R, 1 µM): 12%
CAAAACTACTATTGTG (sugars k3 d10 k3, PS) | 23% | – | –
TGACAATGGTTGATAG (sugars k3 d9 k3 e1, PS) | – | 38% | –
TAGCAGCTAAAATCCA (sugars k3 d10 k3, PS) | – | 66% | –
GTAAACTGTATGCCTC (sugars k3 d10 k3, PS) | – | 74% | target mRNA inhibition (HSD17B13; 0.02 µM): 5%; target mRNA inhibition (HSD17B13; 0.078 µM): 30%; target mRNA inhibition (HSD17B13; 0.313 µM): 43%; target mRNA inhibition (HSD17B13; 1.25 µM): 78%; target mRNA inhibition (HSD17B13; 5 µM): 86%
TAGTTGGTAGCTTGCT (sugars k3 d10 k3, PS) | – | 66% | target mRNA inhibition (HSD17B13; 0.02 µM): 7%; target mRNA inhibition (HSD17B13; 0.078 µM): 31%; target mRNA inhibition (HSD17B13; 0.313 µM): 46%; target mRNA inhibition (HSD17B13; 1.25 µM): 74%; target mRNA inhibition (HSD17B13; 5 µM): 94%
TACTTACCAATATGGG (sugars k3 d10 k3, PS) | – | 13% | –
ATCAATGCCTTAGCCC (sugars k3 d10 k3, PS) | – | 38% | –
GAATCAAATAGATCCT (sugars k3 d10 k3, PS) | – | 46% | –
GTTTATGTAAGCACAG (sugars k3 d10 k3, PS) | – | 67% | –
ATCAACCTGCACACCA (sugars k3 d10 k3, PS) | – | 63% | –
TCTAAGTTAGCCCCCA (sugars k3 d9 k3 e1, PS) | – | 0% | –
GCTTAGTTCTTAATTA (sugars k3 d10 k3, PS) | – | 28% | –
CAGTATCCCCTCAAAT (sugars k3 d10 k3, PS) | – | 53% | –
TGTAGTGGGAGTCGGA (sugars kkdddddddddkekek, PS) | – | 27% | –
CTCATTTATGTACCAA (sugars k3 d10 k3, PS) | – | 87% | target mRNA inhibition (HSD17B13; 0.02 µM): 0%; target mRNA inhibition (HSD17B13; 0.078 µM): 50%; target mRNA inhibition (HSD17B13; 0.313 µM): 75%; target mRNA inhibition (HSD17B13; 1.25 µM): 79%
AGACTTCTTACGACTT (sugars k3 d10 k3, PS) | – | 41% | –
ACGGUGATCAAATGTA (sugars k3 d1 m1 d8 k3, PS) | – | 18% | –
TGAACAGTCTTAAACC (sugars kkdddddddddkekek, PS) | – | 34% | –
CCTATATACATCCAAG (sugars k3 d9 k3 e1, PS) | – | 63% | –
TTCATTCGAATTTCTT (sugars k3 d10 k3, PS) | – | 71% | target mRNA inhibition (HSD17B13; 0.02 µM): 12%; target mRNA inhibition (HSD17B13; 0.078 µM): 10%; target mRNA inhibition (HSD17B13; 0.313 µM): 43%; target mRNA inhibition (HSD17B13; 1.25 µM): 78%; target mRNA inhibition (HSD17B13; 5 µM): 89%

Sequence | target mRNA inhibition (IRF4; SK-MEL-28, 4 µM) | target mRNA inhibition (HSD17B13; 1 µM) | other results
TAGTGTAAGCTGAGAG (sugars k3 d9 k3 e1, PS) | – | 82% | target mRNA inhibition (HSD17B13; 0.02 µM): 6%; target mRNA inhibition (HSD17B13; 0.078 µM): 13%; target mRNA inhibition (HSD17B13; 0.313 µM): 52%; target mRNA inhibition (HSD17B13; 1.25 µM): 69%; target mRNA inhibition (HSD17B13; 5 µM): 79%
CAAAGTTTGGGCAGAG (sugars k3 d10 k3, PS) | – | 44% | –
GTAATTCTAAACTAGT (sugars k3 d10 k3, PS) | – | 39% | –
AATACAGGCCATAATC (sugars k3 d10 k3, PS) | – | 16% | –
CTCCCACAAAACTAAC (sugars k3 d10 k3, PS) | – | 13% | –
TTATATGAGGTCTGTA (sugars k3 d10 k3, PS) | – | 32% | –
TTTGAACCGTATTCCC (sugars k3 d10 k3, PS) | – | 69% | target mRNA inhibition (HSD17B13; 0.02 µM): 36%; target mRNA inhibition (HSD17B13; 0.078 µM): 41%; target mRNA inhibition (HSD17B13; 0.313 µM): 57%; target mRNA inhibition (HSD17B13; 1.25 µM): 79%; target mRNA inhibition (HSD17B13; 5 µM): 85%
TTTCTTATGTAATAGC (sugars kkdddddddddkekek, PS) | – | 60% | –
GGATATGTCATCTAAA (sugars k3 d10 k3, PS) | – | 68% | –
GACAATGTGCAGCTCT (sugars k3 d10 k3, PS) | – | 67% | –
GAGTATAAATGGCAAT (sugars k3 d10 k3, PS) | – | 53% | –
ATATTGATATACGATG (sugars k3 d10 k3, PS) | – | 0% | –
CTCCTTATTTGTTAGA (sugars k3 d10 k3, PS) | – | 26% | –
TAACTTCATAGTGGAC (sugars k3 d10 k3, PS) | – | 76% | –
CTACATGTAAGGTTTT (sugars k3 d10 k3, PS) | – | 11% | –
CTGTCTCCAATACAGG (sugars k3 d10 k3, PS) | – | 29% | –
GAGGTAGCTTTTGTCC (sugars k3 d10 k3, PS) | – | 59% | –
TTAATTTTCGGGTTCT (sugars k3 d10 k3, PS) | – | 31% | –
TGGTCTAAAGTGCTGG (sugars k3 d10 k3, PS) | – | 61% | –
AGAAATTCACCTTGAC (sugars kkdddddddddkekek, PS) | – | 33% | –
ATATATCCTTCCTTGG (sugars k3 d10 k3, PS) | – | 20% | –
CTATAGTAATCACAAG (sugars k3 d9 k3 e1, PS) | – | 53% | –
TATTCCAGGATTTGCT (sugars k3 d10 k3, PS) | – | 43% | –
